Assay results as given in patent US20230398125A1, “TREATING HEPATITIS” (Albireo AB, priority 2022, published 2023).

What was measured:
Human NTCP = target: T1, Human NTCP (Homo sapiens, UniProt Q14973); test: 3H-taurocholic acid uptake in human NTCP-overexpressing cells; assay type: cell-based; conditions: 3H-taurocholic acid transport
T1 construct: expressed in transfected cells; peptide purchased from Pharmaron
T1 sequence (Q14973 1-349): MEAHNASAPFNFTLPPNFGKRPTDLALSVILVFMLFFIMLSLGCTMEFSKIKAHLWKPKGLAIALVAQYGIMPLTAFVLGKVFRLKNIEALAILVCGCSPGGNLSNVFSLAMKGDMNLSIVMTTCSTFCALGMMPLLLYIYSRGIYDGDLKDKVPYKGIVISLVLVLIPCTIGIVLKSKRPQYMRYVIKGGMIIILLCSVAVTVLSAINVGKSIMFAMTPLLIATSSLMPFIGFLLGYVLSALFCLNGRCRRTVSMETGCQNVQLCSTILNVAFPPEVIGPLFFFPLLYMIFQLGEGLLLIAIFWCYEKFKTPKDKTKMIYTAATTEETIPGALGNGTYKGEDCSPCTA
Experimental: 20,000 cells (Human & Mouse NTCP-overexpressing cells) were seeded in 96-well plate in 100 μL MEM-alpha medium supplemented with 10% FBS containing geneticin (1 mg/mL) and incubated at 37° C. in 5% CO2 for 24 hrs. After incubation, media was decanted from the wells and cells were washed two times with 250 μL of basal MEM-alpha medium (FBS-free). After each wash, plates were tapped against a paper towel to ensure maximum removal of residual media. For Human NTCP (hNTCP), incubation mix was prepared by adding test inhibitor dilutions (3-fold serial dilution in DMSO, 10 concentrations) in MEM-alpha (without FBS) containing 0.3 μM ^3H-taurocholic acid and 7.5 μM cold taurocholic acid (maintaining 0.2% final DMSO concentration). […]
The plates were tapped against a paper towel after every wash to ensure maximum removal of blocking buffer. 100 μL of MicroScint-20 was added to the wells and kept overnight at room temperature before reading the plates in MicroBeta2 liquid Scintillation Counter from PerkinElmer under 3H Test for I/L-BAT protocol (set at 120 seconds reading time per well, with normal plate orientation).
(§1) Percentage inhibitions were calculated with respect to the assay controls. […]

[1] = test system: HBV (HepG2 AD38 genotype D); test: Combination of Compound 1 with tenofovir in HBV-infected primary human hepatocytes (MacSynergy II); assay type: cell-based, hepatitis B virus; conditions: summary of studies
Experimental: In two sets of experiments, the effect of combining Compound 1 with tenofovir was studied. Effects of the drug combination were calculated based on the activity of the two compounds when tested alone. The expected additive antiviral protection (based on the dose response curves of the individual agents used alone) was subtracted from the experimentally determined antiviral activity at each combination concentration resulting in a positive value (synergy), a negative value (antagonism), or zero (additivity). […] The results of the combination assays were expressed as a synergy volume μM2% calculated at the 95% confidence interval using the MacSynergy II template.
For these studies, synergy was defined as drug combinations yielding synergy volumes greater than 50 μM2%. Slightly synergistic activity and highly synergistic activity have been defined as yielding synergy volumes of […] and >100 μM2%, respectively.
Synergy volumes between −50 and 50 μM2% were considered additive and synergy volumes less than −50 μM2% were considered antagonistic.

Human IBAT = target: T2, Human IBAT (Homo sapiens, UniProt Q12908); test: 3H-taurocholic acid uptake in human IBAT-overexpressing cells; assay type: cell-based; conditions: 3H-taurocholic acid transport
T2 construct: expressed in transfected cells; kept under puromycin selection
T2 sequence (Q12908 1-348): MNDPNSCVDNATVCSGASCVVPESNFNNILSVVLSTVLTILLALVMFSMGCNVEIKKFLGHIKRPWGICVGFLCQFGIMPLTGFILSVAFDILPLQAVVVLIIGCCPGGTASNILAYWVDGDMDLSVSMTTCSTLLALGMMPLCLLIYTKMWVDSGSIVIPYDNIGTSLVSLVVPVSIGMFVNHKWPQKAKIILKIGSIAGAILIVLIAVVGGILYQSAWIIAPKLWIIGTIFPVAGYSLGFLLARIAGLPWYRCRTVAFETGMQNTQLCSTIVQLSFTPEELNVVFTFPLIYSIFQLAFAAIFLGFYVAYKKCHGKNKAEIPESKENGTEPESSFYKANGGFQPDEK
Experimental: (§2) 10,000 cells (Human & Mouse IBAT-overexpressing cells) were seeded in 96-wells plate in 100 μL MEM-alpha medium supplemented with 10% FBS containing puromycin (10 μg/mL) and incubated at 37° C. in 5% CO2 for 48 hrs. After incubation media was decanted from the wells, cells were washed two times with 250 μL of basal MEM-alpha medium (FBS-free). After each wash, plates were tapped against paper towel to ensure maximum removal of residual media. Test inhibitor dilutions (highest test concentration being 10 μM, 3-fold serial dilution, 10 concentrations) prepared in DMSO were added to the incubation mix (maintaining 0.2% final DMSO concentration) containing 0.25 μM ^3H-taurocholic acid and 5 μM of cold taurocholic acid. […]
(§3) After incubation, the reaction was stopped by keeping the plates on ice water mix for 2-3 minutes and then the incubation mix was aspirated completely from the wells. […] 100 μL of MicroScint-20 was added to the wells and kept overnight at room temperature before reading the plates in MicroBeta2 liquid Scintillation Counter from PerkinElmer under ^3H Test for I/L-BAT protocol (set at 120 seconds reading time per well, with normal plate orientation).
as §1

Mouse IBAT = target: T3, Mouse IBAT (Mus musculus, UniProt P70172); test: 3H-taurocholic acid uptake in mouse IBAT-overexpressing cells; assay type: cell-based; conditions: 3H-taurocholic acid transport
T3 construct: expressed in transfected cells; kept under puromycin selection
T3 sequence (P70172 1-348): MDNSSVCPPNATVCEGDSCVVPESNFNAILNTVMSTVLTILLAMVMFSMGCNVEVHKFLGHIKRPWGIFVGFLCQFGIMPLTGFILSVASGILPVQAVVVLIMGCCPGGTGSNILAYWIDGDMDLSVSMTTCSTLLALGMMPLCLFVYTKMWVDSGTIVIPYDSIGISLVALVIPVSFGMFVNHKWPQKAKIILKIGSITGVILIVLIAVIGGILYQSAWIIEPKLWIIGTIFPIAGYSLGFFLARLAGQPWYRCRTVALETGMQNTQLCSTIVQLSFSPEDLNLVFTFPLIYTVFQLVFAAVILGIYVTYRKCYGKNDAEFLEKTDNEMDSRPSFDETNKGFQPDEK
Experimental: as §2, §3, §1

## CCCCC1CN(c2ccccc2)c2cc(SC)c(O/C=C(\F)C(=O)O)cc2S(=O)(=O)N1C (stereo not shown) [Compound 1, (Z)-3-((3-butyl-2-methyl-7-(methylthio)-1,1-dioxido-5-phenyl-2,3,4,5-tetrahydro-1,2,5-benzothiadiazepin-8-yl)oxy)-2-fluoroacrylic acid]
Human NTCP
  IC50: 0.53 ± 0.081 nM
[1]
  antiviral effect when given together with tenofovir disoproxil fumarate: additive
Human IBAT
  IC50: 535 ± 83.3 nM
Mouse IBAT
  IC50: 40.8 ± 4.6 nM
